Source: patent US20250152585A1, “PHARMACEUTICAL COMPOUND” (Duke Street Bio Limited, priority 2022, published 2025)
Read-outs that look alike come from different tables or passages of the source.

What was measured:
[1] = target: T1, full length N-terminally FLAG-tagged PARP1 (Homo sapiens, UniProt P09874); assay: PARP1 probe displacement HTRF assay; conditions: for Selectivity: PARP1 over PARP2, ratio Kd (PARP2)/Kd (PARP1); for Kd: binned Kd
[2] = target: T2, N-terminally FLAG-tagged PARP2 (amino acids 1-583) (Homo sapiens, UniProt Q9UGN5); assay: PARP2 probe displacement HTRF assay; format: binding; conditions: binned Kd
T2 construct: N-terminally FLAG-tagged PARP2 (amino acids 1-583)
Protocol: Data analysis was performed identical as for PARP1.

[3] = target: T1, full length N-terminally FLAG-tagged PARP1; assay: PARP1 biochemical DELFIA assay (auto-PARylation); design: recombinant full length human N-terminally FLAG-tagged PARP1
[4] = read-out: PARP1 HTRF, probe displacement HTRF
[5] = binned IC50, biochemical auto-PARylation assay
[6] = read-out: PARP1 HTRF, PARP1 probe displacement HTRF
[7] = binned IC50, PARP1 biochemical DELFIA assay

T1 sequence (P09874 whole entry, the tested form may be a part): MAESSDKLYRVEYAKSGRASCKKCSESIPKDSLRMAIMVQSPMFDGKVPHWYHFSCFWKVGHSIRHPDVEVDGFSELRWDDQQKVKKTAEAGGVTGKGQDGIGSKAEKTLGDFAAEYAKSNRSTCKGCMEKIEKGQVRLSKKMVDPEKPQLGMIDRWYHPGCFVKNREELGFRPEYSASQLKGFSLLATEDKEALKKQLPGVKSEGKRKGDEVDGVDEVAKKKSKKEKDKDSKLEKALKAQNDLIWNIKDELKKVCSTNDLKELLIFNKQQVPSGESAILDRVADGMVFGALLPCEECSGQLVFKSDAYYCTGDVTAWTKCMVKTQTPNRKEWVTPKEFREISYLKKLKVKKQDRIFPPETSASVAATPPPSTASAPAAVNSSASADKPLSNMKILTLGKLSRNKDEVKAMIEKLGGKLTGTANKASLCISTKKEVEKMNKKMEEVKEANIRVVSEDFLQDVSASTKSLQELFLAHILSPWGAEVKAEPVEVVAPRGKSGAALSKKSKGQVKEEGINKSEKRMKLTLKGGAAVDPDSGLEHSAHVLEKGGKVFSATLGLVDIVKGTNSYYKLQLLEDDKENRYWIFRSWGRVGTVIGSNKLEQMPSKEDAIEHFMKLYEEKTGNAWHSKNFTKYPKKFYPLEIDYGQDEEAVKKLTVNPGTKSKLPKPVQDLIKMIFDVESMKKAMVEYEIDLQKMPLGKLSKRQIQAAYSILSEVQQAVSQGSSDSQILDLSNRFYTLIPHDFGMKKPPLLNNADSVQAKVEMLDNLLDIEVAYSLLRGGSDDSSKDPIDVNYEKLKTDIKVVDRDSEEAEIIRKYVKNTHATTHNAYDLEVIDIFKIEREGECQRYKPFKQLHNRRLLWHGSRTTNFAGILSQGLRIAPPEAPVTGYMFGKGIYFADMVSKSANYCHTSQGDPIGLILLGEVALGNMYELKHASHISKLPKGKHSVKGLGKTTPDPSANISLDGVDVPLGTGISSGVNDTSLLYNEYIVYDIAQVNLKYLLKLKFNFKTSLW
T2 sequence (Q9UGN5 whole entry, the tested form may be a part): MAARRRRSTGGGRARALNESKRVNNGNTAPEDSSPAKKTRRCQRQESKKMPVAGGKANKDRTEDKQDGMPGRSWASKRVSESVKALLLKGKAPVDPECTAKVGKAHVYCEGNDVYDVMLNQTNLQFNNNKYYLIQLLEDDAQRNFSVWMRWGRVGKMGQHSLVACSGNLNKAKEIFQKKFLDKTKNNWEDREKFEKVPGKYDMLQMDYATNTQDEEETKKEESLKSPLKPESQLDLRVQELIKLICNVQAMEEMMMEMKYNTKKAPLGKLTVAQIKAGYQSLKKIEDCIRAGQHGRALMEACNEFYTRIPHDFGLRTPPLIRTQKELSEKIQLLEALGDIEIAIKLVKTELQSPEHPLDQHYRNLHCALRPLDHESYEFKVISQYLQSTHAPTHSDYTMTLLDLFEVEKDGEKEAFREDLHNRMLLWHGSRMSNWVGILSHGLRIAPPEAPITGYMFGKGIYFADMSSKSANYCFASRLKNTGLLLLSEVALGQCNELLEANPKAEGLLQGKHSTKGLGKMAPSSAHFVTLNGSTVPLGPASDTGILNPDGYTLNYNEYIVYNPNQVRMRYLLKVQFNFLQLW

SMILES | Selectivity ([1]; probe displacement HTRF) | Kd [1, 4] | Kd ([2]; probe displacement HTRF) | IC50 [3, 5] | Kd [1, 6] | Kd ([2]; PARP2 probe displacement HTRF) | IC50 [3, 7] | Kd ([1]; PARP1 HTRF, probe displacement HTRF)
CNC(=O)c1ccc(N2CCC(N3CCC(c4nc5c(C)scc5c(=O)[nH]4)C3)CC2)cn1 (single isomer, unassigned) [Compound 232a] | − (− indicates a value of less than 10) | 10 to 100 nM | 100 to 1000 nM | 10 to 100 nM | – | – | – | –
CNC(=O)c1ccc(N2CCC(N3CCC(c4cc5[nH]nc(C(F)(F)F)c5c(=O)[nH]4)C3)CC2)c(F)n1 (single isomer, unassigned) [Compound 280a] | ++ (++ indicates a value of 50 to less than 100) | 10 to 100 nM | 1000 to 10000 nM | 10 to 100 nM | – | – | – | –
CNC(=O)c1ccc(N2CCC(N3CCCC(c4nc5cnccc5c(=O)[nH]4)C3)CC2)cn1 (single isomer, unassigned) [Compound 106b] | − (− indicates a value of less than 10) | – | – | – | > 10000 nM | > 10000 nM | 1000 to 10000 nM | –
CCc1ccc(C2CCN(C3CCN(c4ccc(C(=O)NCCOC)nc4)CC3)C2)[nH]c1=O (racemic) [Compound 160rac] | +++ (+++ indicate a value of at least 100) | – | – | – | < 10 nM | 1000 to 10000 nM | < 10 nM | –
CNC(=O)c1ncc(N2CCC(N3CCC(c4cc5ccc(F)cc5c(=O)[nH]4)C3)CC2)cc1F (single isomer, unassigned) [Compound 395b] | ++ (++ indicates a value of 50 to less than 100) | < 10 nM | 10 to 100 nM | < 10 nM | – | – | – | –
CNC(=O)c1ccc(N2CCC(N3CCCC(c4nc5sc(C)c(C)c5c(=O)[nH]4)C3)CC2)cn1 (single isomer, unassigned) [Compound 199a] | +++ (+++ indicate a value of at least 100) | – | – | – | < 10 nM | 100 to 1000 nM | < 10 nM | –
N#Cc1ccc(N2CCC(N3CC4(c5nc6ccc(F)cc6c(=O)[nH]5)CC3C4)CC2)c(Cl)c1 [Compound 381] | +++ (+++ indicate a value of at least 100) | – | 1000 to 10000 nM | < 10 nM | – | – | – | < 10 nM
CNC(=O)c1csc(N2CCC(N3CCC(c4cc5ccccc5c(=O)[nH]4)C3)CC2)n1 (single isomer, unassigned) [Compound 274a] | − (− indicates a value of less than 10) | 100 to 1000 nM | 1000 to 10000 nM | 100 to 1000 nM | – | – | – | –
CNC(=O)c1ccc(N2CCC(N3CCC(c4cc5cccc(F)c5c(=O)[nH]4)C3)CC2)c(C)n1 (single isomer, unassigned) [Compound 206b] | +++ (+++ indicate a value of at least 100) | – | – | – | < 10 nM | 1000 to 10000 nM | < 10 nM | –
CCc1ccc(C2CCN(C3CCN(c4cnc(C(=O)NC)nc4C)CC3)C2)[nH]c1=O (single isomer, unassigned) [Compound 246a] | + (+ indicates a value of 10 to less than 50) | 100 to 1000 nM | > 10000 nM | 100 to 1000 nM | – | – | – | –
CNC(=O)c1ccc(N2CCC(N3CCC(c4nc5c(C)nn(C)c5c(=O)[nH]4)C3)CC2)cn1 (racemic) [Compound 143rac] | +++ (+++ indicate a value of at least 100) | – | – | – | < 10 nM | 1000 to 10000 nM | 10 to 100 nM | –
CNC(=O)c1cc(C)c(N2CCC(N3CCC(c4nc5ccccc5c(=O)[nH]4)C3)CC2)c(C)n1 (single isomer, unassigned) [Compound 224b] | − (− indicates a value of less than 10) | 100 to 1000 nM | 1000 to 10000 nM | 100 to 1000 nM | – | – | – | –
CNC(=O)c1ncc(N2CCC(N3CCC(c4cc5ccc(F)cc5c(=O)[nH]4)C3)CC2)c(Cl)n1 (racemic) [Compound 400rac] | +++ (+++ indicate a value of at least 100) | < 10 nM | 100 to 1000 nM | < 10 nM | – | – | – | –
CCc1ccc(C2CCN(C3CCN(c4ccc(C(=O)NC)cc4)CC3)C2)[nH]c1=O (single isomer, unassigned) [Compound 355b] | +++ (+++ indicate a value of at least 100) | < 10 nM | 100 to 1000 nM | < 10 nM | – | – | – | –
CNC(=O)c1ccc(N2CCC(N3CCC(c4cc5c(C(F)(F)F)cccc5c(=O)[nH]4)C3)CC2)cn1 (single isomer, unassigned) [Compound 167b] | +++ (+++ indicate a value of at least 100) | – | – | – | < 10 nM | 100 to 1000 nM | < 10 nM | –
O=c1[nH]c(C2CCN(C3CCC(F)(F)CC3)C2)nc2ccccc12 (single isomer, unassigned) [Compound 4a] | − (− indicates a value of less than 10) | – | – | – | 100 to 1000 nM | 100 to 1000 nM | 100 to 1000 nM | –
CCc1ccc(C2CCN(C3CCN(c4cnc(C(=O)NC)cc4C(F)(F)F)CC3)C2)[nH]c1=O (single isomer, unassigned) [Compound 298b] | +++ (+++ indicate a value of at least 100) | 10 to 100 nM | 1000 to 10000 nM | 10 to 100 nM | – | – | – | –
CNC(=O)c1ccc(N2CCC(N3CCCC(c4nc5ncccc5c(=O)[nH]4)C3)CC2)cn1 (single isomer, unassigned) [Compound 98b] | + (+ indicates a value of 10 to less than 50) | – | – | – | 100 to 1000 nM | > 10000 nM | 100 to 1000 nM | –
CNC(=O)c1ncc(N2CCC(N3CCC(c4cc5cccc(F)c5c(=O)[nH]4)C3)CC2)c(C)n1 (racemic) [Compound 241rac] | +++ (+++ indicate a value of at least 100) | < 10 nM | 100 to 1000 nM | < 10 nM | – | – | – | –
N#Cc1ccc(N2CCC(N3CCC(c4cc5cccc(F)c5c(=O)[nH]4)C3)CC2)cc1 (single isomer, unassigned) [Compound 314a] | + (+ indicates a value of 10 to less than 50) | < 10 nM | 100 to 1000 nM | < 10 nM | – | – | – | –
NC(=O)c1ccc(N2CCC(N3CCCC(c4nc5ccccc5c(=O)[nH]4)C3)CC2)cn1 (single isomer, unassigned) [Compound 109a] | +++ (+++ indicate a value of at least 100) | – | – | – | < 10 nM | > 10000 nM | 10 to 100 nM | –
N#Cc1ccc(N2CCC(N3CCC(c4nc5ccccc5c(=O)[nH]4)C3)CC2)cc1 (single isomer, unassigned) [Compound 34a] | − (− indicates a value of less than 10) | – | – | – | 10 to 100 nM | 100 to 1000 nM | 10 to 100 nM | –
CCc1ccc(C2CCN(C3CCN(c4cnc(C(=O)NC)nc4C)CC3)C2)[nH]c1=O (single isomer, unassigned) [Compound 246b] | +++ (+++ indicate a value of at least 100) | < 10 nM | 1000 to 10000 nM | < 10 nM | – | – | – | –
O=c1[nH]c(C2CCN(C3CCN(c4ccc(F)cc4F)CC3)C2)nc2ccccc12 (single isomer, unassigned) [Compound 107a] | + (+ indicates a value of 10 to less than 50) | – | – | – | 10 to 100 nM | 1000 to 10000 nM | 10 to 100 nM | –
CNC(=O)c1ccc(N2CCC(N3CCC(c4ccc(COC)c(=O)[nH]4)C3)CC2)cn1 (single isomer, unassigned) [Compound 207a] | +++ (+++ indicate a value of at least 100) | – | – | – | < 10 nM | > 10000 nM | < 10 nM | –
CCc1ccc(C2CCN(C3CCN(c4ccc(C(=O)NC)nc4Cl)CC3)C2)[nH]c1=O (single isomer, unassigned) [Compound 239a] | +++ (+++ indicate a value of at least 100) | < 10 nM | > 10000 nM | < 10 nM | – | – | – | –
CNC(=O)c1ccc(N2CCC(N3CCC(c4nc5c(c(=O)[nH]4)COC5)C3)CC2)cn1 (single isomer, unassigned) [Compound 272a] | − (− indicates a value of less than 10) | > 10000 nM | > 10000 nM | > 10000 nM | – | – | – | –
CNC(=O)c1ccc(N2CCC(N3CCC(c4nc5ccccc5c(=O)[nH]4)C3)CC2)c(C(F)F)n1 (single isomer, unassigned) [Compound 158a] | +++ (+++ indicate a value of at least 100) | – | – | – | < 10 nM | 1000 to 10000 nM | < 10 nM | –
